Patent US5958943A, “[A]-anellated pyrrole derivatives and their use in pharmacology” (Merckle GmbH, priority 1994, dated 1999)

Columns and labels:
5-lipoxygenase = molecular target: T1, 5-lipoxygenase (Bos taurus, UniProt F1MQ78); assay: Inhibition of 5-lipoxygenase (LO), according to Dannhardt et al.; assay type: biochemical; conditions: Table 1 column IC50 LO/CO, first value
T1 construct: endogenous in cells
T1 sequence (F1MQ78 1-674): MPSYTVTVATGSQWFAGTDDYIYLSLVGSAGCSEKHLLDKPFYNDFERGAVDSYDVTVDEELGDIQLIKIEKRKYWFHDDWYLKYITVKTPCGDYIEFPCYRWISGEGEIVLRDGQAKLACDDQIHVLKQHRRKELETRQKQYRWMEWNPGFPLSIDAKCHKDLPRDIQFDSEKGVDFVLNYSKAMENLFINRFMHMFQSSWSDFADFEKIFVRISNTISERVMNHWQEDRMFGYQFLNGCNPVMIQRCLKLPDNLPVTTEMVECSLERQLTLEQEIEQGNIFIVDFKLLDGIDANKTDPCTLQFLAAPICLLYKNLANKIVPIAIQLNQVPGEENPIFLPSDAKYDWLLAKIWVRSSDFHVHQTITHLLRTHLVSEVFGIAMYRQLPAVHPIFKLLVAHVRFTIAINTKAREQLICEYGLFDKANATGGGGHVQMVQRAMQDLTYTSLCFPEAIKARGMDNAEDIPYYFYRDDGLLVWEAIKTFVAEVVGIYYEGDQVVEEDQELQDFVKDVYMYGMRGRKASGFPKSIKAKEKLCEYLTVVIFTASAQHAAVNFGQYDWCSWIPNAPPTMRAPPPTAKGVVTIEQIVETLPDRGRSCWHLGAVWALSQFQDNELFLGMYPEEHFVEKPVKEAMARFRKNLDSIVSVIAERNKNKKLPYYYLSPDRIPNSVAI
Text: (§1) The efficacy of the compounds according to the invention can be determined from the inhibition of 5-lipoxygenase or cyclooxygenase. Experiments have be carried out according to Dannhardt et al., J. Pharm. Pharmacol. 1992, 44: 419-424.

cyclooxygenase = molecular target: T2, cyclooxygenase (Bos taurus, UniProt O62664); assay: Inhibition of cyclooxygenase (CO), according to Dannhardt et al.; assay type: biochemical; conditions: Table 1 column IC50 LO/CO, second value
T2 construct: endogenous in cells
T2 sequence (O62664 25-600): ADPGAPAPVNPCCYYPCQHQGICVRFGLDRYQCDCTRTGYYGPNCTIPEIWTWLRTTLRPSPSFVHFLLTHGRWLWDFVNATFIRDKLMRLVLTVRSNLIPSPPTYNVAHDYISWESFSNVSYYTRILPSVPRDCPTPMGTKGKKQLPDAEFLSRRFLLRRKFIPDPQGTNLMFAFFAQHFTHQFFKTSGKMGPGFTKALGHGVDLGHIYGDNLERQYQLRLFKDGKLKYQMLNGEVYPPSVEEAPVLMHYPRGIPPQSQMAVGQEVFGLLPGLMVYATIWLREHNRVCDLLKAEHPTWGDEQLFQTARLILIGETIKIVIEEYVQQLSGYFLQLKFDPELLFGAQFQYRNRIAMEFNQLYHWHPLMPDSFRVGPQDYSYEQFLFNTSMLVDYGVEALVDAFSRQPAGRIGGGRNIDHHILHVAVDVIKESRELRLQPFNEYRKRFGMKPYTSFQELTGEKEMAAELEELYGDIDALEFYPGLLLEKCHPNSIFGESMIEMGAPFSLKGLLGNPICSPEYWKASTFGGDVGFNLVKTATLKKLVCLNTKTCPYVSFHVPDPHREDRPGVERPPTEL
Text: as §1

mouse = assay: Formalin analgesia test in the mouse p.o.; assay type: in vivo
Text: The spectrum of efficacy of the compounds was also investigated using the following tests:
2) Formalin analgesia test in the mouse p.o., B. Rubin et al., Endocrinol.,49:429-439, 1951;

| IC50 (5-lipoxygenase) [nM] | IC50 (cyclooxygenase) [nM] | SMILES | times more analgesically effective than the corresponding 4-chlorophenyl derivative (mouse; in vivo, compared with the corresponding 4-chlorophenyl derivative) [times] | minimal effective dose (mouse; po, formalin analgesia model of the mouse, comparison compound, read-out: MED) [mg/kg] |
| --- | --- | --- | --- | --- |
| 400 | 200 | CC1(C)Cc2c(-c3ccccc3)c(-c3ccc(Cl)s3)c(CC(=O)O)n2C1 [Example 1] | 10 |  |
|  |  | CC1(C)Cc2c(-c3ccccc3)c(-c3ccc(Cl)cc3)c(CC(=O)O)n2C1 [corresponding 4-chlorophenyl derivative, reference compound] |  | 100 |
